For 30 compounds, IC50 results are on record in patent US11358952B2, “Substituted 4-aminoisoindoline-1,3-dione compounds, compositions thereof, and methods of treatment therewith” (Celgene Corporation, priority 2018, dated 2022).

This assay deals with SU-DHL-4 cell line. The experiment in a line: SU-DHL-4 cell proliferation assay (Cell Titer-Glo viability). In kind it is cell-based. Particulars: Homo sapiens; cell viability IC50 activity level, DLBCL cell line SU-DHL-4, 120 hours post-treatment; read-out: SU-DHL-4 Act. The method, boiled down: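 SU-DHL-4 cells (500/well, RPMI-1640 + 10% FBS) exposed to 20-point compound dilutions (0.5 nM–10 μM, 0.1% DMSO) for 120 h at 37°C, 5% CO2. Viability measured by Cell Titer-Glo luminescence at t0 and at 120 h. IC50 is the concentration giving 50% of DMSO control, from a four-parameter logistic fit.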
In general terms: Cellular ATP, detected with luciferase, serves as a proxy for viable cell number.
Consider `CC(C)(C)N1CCN(Cc2ccc(CNc3cccc4c3C(=O)N(C3CCC(=O)NC3=O)C4=O)c(F)c2)CC1` (stereo not drawn) [Cpd 95, 4-(4-((4-tert-butylpiperazin-1-yl)methyl)-2-fluorobenzylamino)-2-(2,6-dioxopiperidin-3-yl)isoindoline-1,3-dione], for which the IC50 was less than 200 nM.

`O=C1CCC(N2C(=O)c3cccc(NCc4ccc(CN5CCC(O)(c6ccccn6)CC5)cc4)c3C2=O)C(=O)N1` (stereo not drawn) [Cpd 111, 2-(2,6-dioxopiperidin-3-yl)-4-(4-((4-hydroxy-4-(pyridin-2-yl)piperidin-1-yl)methyl)benzylamino)isoindoline-1,3-dione]: the IC50 was less than 200 nM.

As to `C[C@@H]1COC[C@H](C)N1C1CN(Cc2ccc(CNc3cccc4c3C(=O)N(C3CCC(=O)NC3=O)C4=O)c(F)c2)C1` (stereo partly drawn) [Cpd 249, 4-(4-((3-((3S,5R)-3,5-dimethylmorpholino)azetidin-1-yl)methyl)-2-fluorobenzylamino)-2-(2,6-dioxopiperidin-3-yl)isoindoline-1,3-dione], the IC50 was less than 200 nM.

For `CCC1(O)CCN(Cc2ccc(CNc3cccc4c3C(=O)N(C3CCC(=O)NC3=O)C4=O)cc2)CC1` (stereo not drawn) [Cpd 88, 2-(2,6-dioxopiperidin-3-yl)-4-(4-((4-ethyl-4-hydroxypiperidin-1-yl)methyl)benzylamino)isoindoline-1,3-dione], the IC50 lay in the range of 501 to 750 nM.

Turning to `O=C1CCC(N2C(=O)c3cccc(NCc4ccc(CN5CC6(CCCC6)C5)cc4)c3C2=O)C(=O)N1` (stereo not drawn) [Cpd 39, 4-(4-(2-azaspiro[3.4]octan-2-ylmethyl)benzylamino)-2-(2,6-dioxopiperidin-3-yl)isoindoline-1,3-dione], the IC50 is less than 200 nM.

Consider `NC(=O)c1ccc(N2CCN(Cc3ccc(CNc4cccc5c4C(=O)N(C4CCC(=O)NC4=O)C5=O)c(F)c3)CC2)cc1` (stereo not drawn) [Cpd 139, 4-(4-(4-((2-(2,6-dioxopiperidin-3-yl)-1,3-dioxoisoindolin-4-ylamino)methyl)-3-fluorobenzyl)piperazin-1-yl)benzamide], for which the IC50 is less than 200 nM.

Take `N#Cc1cccc(N2CCN(Cc3ccc(CNc4cccc5c4C(=O)N(C4CCC(=O)NC4=O)C5=O)cc3)CC2)n1` (stereo not drawn) [Cpd 138, 6-(4-(4-((2-(2,6-dioxopiperidin-3-yl)-1,3-dioxoisoindolin-4-ylamino)methyl)benzyl)piperazin-1-yl)picolinonitrile]: the IC50 was 501 to 750 nM.

In the case of `CCC1CCN(Cc2ccc(CNc3cccc4c3C(=O)N(C3CCC(=O)NC3=O)C4=O)cc2C)CC1` (stereo not drawn) [Cpd 41, 2-(2,6-dioxopiperidin-3-yl)-4-(4-((4-ethylpiperidin-1-yl)methyl)-3-methylbenzylamino)isoindoline-1,3-dione], the IC50 was less than 200 nM.

Consider `O=C1CCC(N2C(=O)c3cccc(NCc4ccc(CN5CC(N6CCOCC6)C5)cc4F)c3C2=O)C(=O)N1` (stereo not drawn) [Cpd 171, 2-(2,6-dioxopiperidin-3-yl)-4-(2-fluoro-4-((3-morpholinoazetidin-1-yl)methyl)benzylamino)isoindoline-1,3-dione], for which the IC50 was less than 200 nM.

In the case of `O=C1CCC(N2C(=O)c3cccc(NCc4ccc(CN5CCC(OC6CCC6)CC5)cc4)c3C2=O)C(=O)N1` (stereo not drawn) [Cpd 126], the IC50 is 200 to 500 nM.

As for `O=C1CCC(N2C(=O)c3cccc(NCc4ccc(CN5CCC6(CCNC6=O)CC5)cc4F)c3C2=O)C(=O)N1` (stereo not drawn) [Cpd 150, 2-(2,6-dioxopiperidin-3-yl)-4-(2-fluoro-4-((1-oxo-2,8-diazaspiro[4.5]decan-8-yl)methyl)benzylamino)isoindoline-1,3-dione], the IC50 was less than 200 nM.

In the case of `CCCOC1CCN(Cc2ccc(CNc3cccc4c3C(=O)N(C3CCC(=O)NC3=O)C4=O)cc2)CC1` (stereo not drawn) [Cpd 124, 2-(2,6-dioxopiperidin-3-yl)-4-(4-((4-propoxypiperidin-1-yl)methyl)benzylamino)isoindoline-1,3-dione], the IC50 was in the range of 501 to 750 nM.

Take `N#Cc1ccc(OC2CN(Cc3ccc(CNc4cccc5c4C(=O)N(C4CCC(=O)NC4=O)C5=O)cc3)C2)cc1` (stereo not drawn) [Cpd 74, 4-(1-(4-((2-(2,6-dioxopiperidin-3-yl)-1,3-dioxoisoindolin-4-ylamino)methyl)benzyl)azetidin-3-yloxy)benzonitrile]: the IC50 was 501 to 750 nM.

In the case of `Cc1cc(CNc2cccc3c2C(=O)N(C2CCC(=O)NC2=O)C3=O)ccc1CN1CCC(C(=O)N(C)C)CC1` (stereo not drawn) [Cpd 79, 1-(4-((2-(2,6-dioxopiperidin-3-yl)-1,3-dioxoisoindolin-4-ylamino)methyl)-2-methylbenzyl)-N,N-dimethylpiperidine-4-carboxamide], the IC50 is 200 to 500 nM.

Consider `CN1CCC2(CCN(Cc3ccc(CNc4cccc5c4C(=O)N(C4CCC(=O)NC4=O)C5=O)cc3F)CC2)C1=O` (stereo not drawn) [Cpd 153, 2-(2,6-dioxopiperidin-3-yl)-4-(3-fluoro-4-((2-methyl-1-oxo-2,8-diazaspior[4.5]decan-8-yl)methyl)benzylamino)isoindoline-1,3-dione], for which the IC50 lay within 501 to 750 nM.

For the compound `Cc1cc(CN2CCC(C(C)C)CC2)ccc1CNc1cccc2c1C(=O)N(C1CCC(=O)NC1=O)C2=O` (stereo not drawn) [Cpd 100, 2-(2,6-dioxopiperidin-3-yl)-4-(4-((4-isopropylpiperidin-1-yl)methyl)-2-methylbenzylamino)isoindoline-1,3-dione], the IC50 was 200 to 500 nM.

For the compound `Cc1cc(CNc2cccc3c2C(=O)N(C2CCC(=O)NC2=O)C3=O)ccc1CN1CCOCC1` (stereo not drawn) [Cpd 155, 2-(2,6-dioxopiperidin-3-yl)-4-(3-methyl-4-(morpholinomethyl)benzylamino) isoindoline-1,3-dione], the IC50 lay in the range of 751 to 1000 nM.

For `CC1(C)COCCN1C1CN(Cc2ccc(CNc3cccc4c3C(=O)N(C3CCC(=O)NC3=O)C4=O)c(F)c2)C1` (stereo not drawn) [Cpd 237, 4-(4-((3-(3,3-dimethylmorpholino)azetidin-1-yl)methyl)-2-fluorobenzylamino)-2-(2,6-dioxopiperidin-3-yl)isoindoline-1,3-dione], the IC50 was less than 200 nM.

In the case of `CCC1CCN(Cc2ccc(CNc3cccc4c3C(=O)N(C3CCC(=O)NC3=O)C4=O)cc2)CC1` (stereo not drawn) [Cpd 22, 2-(2,6-dioxopiperidin-3-yl)-4-(4-((4-ethylpiperidin-1-yl)methyl)benzylamino)isoindoline-1,3-dione], the IC50 was in the range of 200 to 500 nM.

Consider `CC(C)(C)C1CN(Cc2ccc(CNc3cccc4c3C(=O)N(C3CCC(=O)NC3=O)C4=O)c(F)c2)C1` (stereo not drawn) [Cpd 134, 4-(4-((3-tert-butylazetidin-1-yl)methyl)-2-fluorobenzylamino)-2-(2,6-dioxopiperidin-3-yl)isoindoline-1,3-dione], for which the IC50 is less than 200 nM.

On to `O=C1CCC(N2C(=O)c3cccc(NCc4ccc(CN5CCC6(CC5)CC6)cc4)c3C2=O)C(=O)N1` (stereo not drawn) [Cpd 21, 4-(4-(6-azaspiro[2.5]octan-6-ylmethyl)benzylamino)-2-(2,6-dioxopiperidin-3-yl)isoindoline-1,3-dione], for which the IC50 was in the range of 501 to 750 nM.

With `O=C1CCC(N2C(=O)c3cccc(NCc4ccc(CN5CCC6(CCOC6)CC5)cc4F)c3C2=O)C(=O)N1` (stereo not drawn) [Cpd 231, 4-(4-(2-oxa-8-azaspiro[4.5]decan-8-ylmethyl)-2-fluorobenzylamino)-2-(2,6-dioxopiperidin-3-yl)isoindoline-1,3-dione], the IC50 was less than 200 nM.

For `O=C1CCC(N2C(=O)c3cccc(NCc4ccc(CN5CCN(c6ccccc6Cl)CC5)cc4)c3C2=O)C(=O)N1` (stereo not drawn) [Cpd 12, 4-(4-((4-(2-chlorophenyl)piperazin-1-yl)methyl)benzylamino)-2-(2,6-dioxopiperidin-3-yl)isoindoline-1,3-dione], the IC50 is 200 to 500 nM.

For the compound `CC1(C)CN(c2ccc(C#N)nc2)CCN1Cc1ccc(CNc2cccc3c2C(=O)N(C2CCC(=O)NC2=O)C3=O)cc1` (stereo not drawn) [Cpd 85, 5-(4-(4-((2-(2,6-dioxopiperidin-3-yl)-1,3-dioxoisoindolin-4-ylamino)methyl)benzyl)-3,3-dimethylpiperazin-1-yl)picolinonitrile], the IC50 was less than 200 nM.

Turning to `NC(=O)c1ccc(N2CCN(Cc3ccc(CNc4cccc5c4C(=O)N(C4CCC(=O)NC4=O)C5=O)cc3F)CC2)cc1` (stereo not drawn) [Cpd 141, 4-(4-(4-((2-(2,6-dioxopiperidin-3-yl)-1,3-dioxoisoindolin-4-ylamino)methyl)-2-fluorobenzyl)piperazin-1-yl)benzamide], the IC50 was less than 200 nM.

For `NC(=O)c1cccc(N2CCN(Cc3ccc(CNc4cccc5c4C(=O)N(C4CCC(=O)NC4=O)C5=O)cc3F)CC2)n1` (stereo not drawn) [Cpd 183, 6-(4-(4-((2-(2,6-dioxopiperidin-3-yl)-1,3-dioxoisoindolin-4-ylamino)methyl)-2-fluorobenzyl)piperazin-1-yl)picolinamide], the IC50 is less than 200 nM.

Turning to `CN(C)C(=O)c1ccc(N2CCN(Cc3ccc(CNc4cccc5c4C(=O)N(C4CCC(=O)NC4=O)C5=O)cc3F)CC2)cn1` (stereo not drawn) [Cpd 142, 5-(4-(4-((2-(2,6-dioxopiperidin-3-yl)-1,3-dioxoisoindolin-4-ylamino)methyl)-2-fluorobenzyl)piperazin-1-yl)-N,N-dimethylpicolinamide], the IC50 is 501 to 750 nM.

As for `CC1(C)CCC2(CCN(Cc3ccc(CNc4cccc5c4C(=O)N(C4CCC(=O)NC4=O)C5=O)cc3)CC2)O1` (stereo not drawn) [Cpd 129, 4-(4-((2,2-dimethyl-1-oxa-8-azaspiro[4.5]decan-8-yl)methyl)benzylamino)-2-(2,6-dioxopiperidin-3-yl)isoindoline-1,3-dione], the IC50 was less than 200 nM.

As for `Cc1cc(CN2CCC(C(C)(C)C)CC2)ccc1CNc1cccc2c1C(=O)N(C1CCC(=O)NC1=O)C2=O` (stereo not drawn) [Cpd 96, 4-(4-((4-tert-butylpiperidin-1-yl)methyl)-2-methylbenzylamino)-2-(2,6-dioxopiperidin-3-yl)isoindoline-1,3-dione], the IC50 is less than 200 nM.

Take `O=C1CCC(N2C(=O)c3cccc(NCc4ccc(CN5CCC(c6cc(F)cc(F)c6)CC5)cc4)c3C2=O)C(=O)N1` (stereo not drawn) [Cpd 20, 4-(4-((4-(3,5-difluorophenyl)piperidin-1-yl)methyl)benzylamino)-2-(2,6-dioxopiperidin-3-yl)isoindoline-1,3-dione]: the IC50 was 200 to 500 nM.
